Key:
[1] = test system: Non-Obese Diabetic (NOD) mice; assay: Prevention of glucosuria / Juvenile (Type I, IDDM) Diabetes in NOD mice; assay type: in vivo, mouse; conditions: for Healthy/Total* (healthy and well = sugar not detected in urine): female NOD mice
Description: Juvenile (Type I, IDDM) Diabetes in Non-Obese Diabetic (NOD) Mice:
Peptides Derived from Natural Casein:
NOD mice are a commonly used model for research of autoimmune disease and human Juvenile Diabetes. Six week old female NOD mice received either one or two injections per week of 100 μg of peptides derived from natural casein, for a total of 5 or 11 treatments. Control mice received no treatment. The severity of disease was determined according to glucosuria, which was measured using Combi test sticks [Gross, D. J. et al. (1994), Diabetology, 37:1195]. Results were expressed as the percent of glucosuria-free mice in each sample over a 365-day period.
Synthetic Peptides Derived from Casein:
In another experiment, 6 week old female NOD mice received one injection per week of 100 μg of Synthetic peptides derived from casein for a total of 5 treatments. Control mice received no treatment. Results were expressed as the number of healthy mice in the various treated groups.

[2] = test system: murine primary bone marrow cells; assay: Multipotential colonies (CFU-GEMM) from murine bone marrow cells, colony and differential counts; assay type: cell-based, mouse; conditions: for macrophages, % of total cell count: approximately 17% in unincubated controls; for megakaryocyte formation and development: 8 days treatment
Description: Stimulation of Hematopoiesis from Bone Marrow (BM) Cells in Culture:
Proliferation of megakaryocytes in multipotential colonies (CFU-GEMM) from murine Bone Marrow cells: Primary bone marrow cells (1×10^5 per ml) from 8-12 week-old C3H/HeJ mice were grown in serum-free methyl cellulose-IMDM medium for 8-9 days at 5% CO2, 95% air, at 37° C. The medium, appropriate for the growth of multipotential colonies (CFU-GEMM), contained 1% BSA (Sigma), 10^−4 M thioglycerol (Sigma), 2.8×10^−4 M human transferrin (TF, Biological industries, Israel), 10% WEHI-CM as a source of IL-3 and 2 units per ml erythropoietin (rhEPO, R & D Systems, Minneapolis). Colonies were scored after 8-9 days using an Olympus dark field microscope. They were picked with a micropipette, cytocentrifuged and stained with May-Grunwald-Giemsa for differential counts. At least 700 cells were counted for each preparation. […]
Proliferation of Macrophage cells in CFU-GEMM: Multipotent (CFU-GEMM colonies grown from primary bone marrow cells as described for the assay of megakaryocyte proliferation above were collected, stained and counted for macrophage cells. At least 700 cells were counted for each preparation.
Proliferation of Red Blood Cells in CFU-GEMM: Multipotent (CFU-GEMM) colonies grown from primary bone marrow cells as described for the assay of megakaryocyte proliferation above were collected, stained and counted for red blood cells. At least 700 cells were counted for each preparation. […]

[3] = test system: lethally irradiated, bone marrow-reconstituted mice; assay: Leukocyte and platelet reconstitution in bone marrow transplant recipient mice; assay type: in vivo, mouse; conditions: for platelet counts: 800 cGy, 100 μg per mouse i.p. on days 4-7; for peripheral white blood cell counts: BALB/c, 600 cGy, 1 mg per mouse intraperitoneal
Description: Leukocyte and platelet reconstitution in bone marrow transplant recipient mice: BALB/c mice were lethally irradiated at a source to skin distance of 70 cm, dosage of 50 cGy per minute, for a total of 600 cGy. The irradiated mice were […] casein, synthetic peptides derived from casein (13-26 amino acids, see Table 3 above), or human serum albumin (controls), following a double-blinded protocol. Leukocyte reconstitution was determined according to cell count in peripheral blood collected at indicated intervals from 6 to 12 days post treatment. Platelet reconstitution was determined by cell count in blood collected from the retro orbital plexus, into heparinized capillaries, at indicated intervals from day 6 to day 15 post treatment.
In an additional series of experiments, CBA mice were lethally irradiated (900 cGy), reconstituted and treated with peptides derived from natural casein or human serum albumin as described above. Platelet reconstitution was assayed as mentioned above.
In a third series of experiments, the mice were irradiated (800 cGy), reconstituted and injected intraperitoneally with 100 μg synthetic peptides derived from casein (peptides 3a and 4P, representing the first 6 and 12 amino acids of the N terminus of αS1 casein, respectively—see Table 3 above) daily, on days 4, 5, 6 and 7 post-transplantation. Platelet reconstitution was assayed at 10 and 12 days post-transplantation.

[4] = test system: Non-Obese Diabetic (NOD) mice; assay: Intraperitoneal Glucose Tolerance Test (IPGTT) in NOD mice; assay type: in vivo, mouse; parameters: IPGT TEST 0 min. (pre-load), plasma glucose: unit not given here; conditions: individual healthy NOD mice, 25 weeks after peptides
Description: Intraperitoneal Glucose Tolerance Test (IPGTT):
The glucose tolerance test is the definitive method for investigating glucose metabolism and diabetic tendencies in mammals. Twenty five (25) weeks after receiving Synthetic peptides derived from casein, response to a glucose load was assessed with an intraperitoneal glucose tolerance test. Glucose injection consisted of 1 g/kg body weight. Glycemic values were determined from blood drawn prior to test (0 minutes) and 60 minutes after loading.

[5] = test system: HIV-1IIIB; assay: Inhibition of HIV-1 infection of CEM lymphocytes (cell counts, P24 antigen assay); assay type: cell-based
Description: Inhibition of in vitro HIV infection of human lymphocyte cells:
Peptides: Peptides (either peptides derived from natural casein or synthetic peptides derived from casein (1-25 amino acids in length, see table 3) supplied as lyophilized powder were resuspended in RPMI complete medium and added to cell cultures at a final concentrations of 50 to 1000 μg per ml.
Cells: Several types of freshly isolated human cells (primary cells) and cell lines are known to be susceptible to in vitro HIV-1 infection, although essentially any cell displaying even low surface levels of the CD4 molecule can be considered a potential target for HIV-1 infection. Two commonly used human cell lines which are highly sensitive for HIV-1 infection were chosen, CEM and Sup-T1.
CEM is a human T4-lymphoblastoid cell line initially derived by G. E. Foley et al. [(1965), Cancer 18:522] from peripheral blood buffy coat of a person with acute lymphoblastic leukemia. These cells were continuously maintained in suspension in medium, and have been used widely for analysis of infectivity, antiviral agents and neutralizing antibodies.
Virus: The HIV virus strain employed was HIV-1IIIB, originally designated HTLV-IIIB. Concentrated culture fluids of peripheral blood from several patients with AIDS or related diseases were used to establish a permanent productive infection in H-9 cells. This subtype B virus has high capacity to replicate in human T-cell lines. Viral titer was 5.38 ng per ml in stock solution.
HIV-1 P24 antigen capture assay: An HIV-1 P24 Antigen capture assay kit employed was designed to quantitate the HIV-1 P24 core antigen, which is proportionally related to the degree of viral production in cells. This kit was purchased from the AIDS Vaccine program of the SAIC-NCI-Frederick Cancer Research Institute, P.O. Box B, Frederick, Md. 21702, USA and included 96 well plates coated with monoclonal antibody to HIV-1 P24, primary antibody-rabbit anti-HIV P24 serum, secondary antibody-Goat anti-rabbit-IgG (H+ L) peroxidase conjugated antibody, TMB peroxidase substrate system and lysed HIV-1 P24 standard. The HIV-1 P24 antigen capture assay was analyzed by Organon-Technica ELISA reader at 450 nm with a reference at 650 nm.
HIV-1 P24 antigen capture ELISA: HIV infection was measured with an indirect enzyme immunoassay which detects HIV-1 P24 core antigens in tissue culture media. Tissue culture supernatant was reacted with primary rabbit anti-HIV-1 P24 antigen and visualized by peroxidase conjugated goat anti rabbit IgG. The reaction was terminated by adding 4N H2SO4, wherein the intensity of the color developed is proportional to the amount of HIV-1 antigen present in the tissue culture supernatant.
HIV infection of human cultured CD4+ cells: The cells (CEM, Sup-T1) were preincubated with several increasing concentrations of peptides derived from natural casein (50-1000 μg per ml) or synthetic peptides derived from casein (10-500 μg per ml) for 3, 24 (for synthetic and natural peptides) and 48 (only for natural peptides) hours and HIV-1IIIB (45 μg per ml final concentration) was added to each well thereafter. HIV-1IIIB was preincubated with the peptides for 3 hours and then added to cells (5000 cells/well) in tissue culture plates. Controls were IF (Infected, cells cultured with HIV-1 and without peptides), UIF (Uninfected, cells cultured without HIV-1 and without peptides) and UIF+Ch (Uninfected+peptides derived from natural casein, cells cultured in the presence of peptides derived from natural casein {50-1000 μg per ml}) to test the effect of peptides derived from natural casein and synthetic peptides derived from casein on cell viability and growth. Cells were counted for viability and proliferation rate on day 7, 10 and day 14 post infection (the day of P24 antigen culture supernatant harvest). Cells and tissue culture supernatants (media) were harvested and lysed immediately in 1/10 volume of 10% Triton X-100. […]

[6] = 100 μg once weekly for 5 weeks, evaluated after 25 weeks
[7] = 12 days post transplantation, controls 676 (4P) and 461 (3a)

## RPKHPIKH [Y]
[1]; [6]
  Healthy/Total* (healthy and well = sugar not detected in urine): 1/5

## RPKHPIK [5P]
[2]
  macrophages, % of total cell count: ~30%

## RPKHPIKHQGLPQEVLNENLLRFF
[2]
  megakaryocyte formation and development: significant increase

## RPKHPIKHQGLPQEVLNENLLRF
[1]; [6]
  Healthy/Total* (healthy and well = sugar not detected in urine): 2/5
[2]
  macrophages, % of total cell count: ~30%

## RPKHPIKHQGLPQEVLNE [F]
[2]
  megakaryocyte formation and development: significant increase

## RPKHPIKHQGLPQEVLNENL
[2]
  megakaryocyte formation and development: significant increase

## RPKH [2P]
[1]; assayed at week 16, untreated controls 100% glucosuria, data not shown
  onset of glucosuria: effectively prevented
[2]; 53% in unincubated controls
  red blood cells, % of total cell count: 71%

## RPKHPIKHQGLPQEVLNENLL
[1]; [6]
  Healthy/Total* (healthy and well = sugar not detected in urine): 2/5
[2]
  megakaryocyte formation and development: significant increase

## RPKHPIKHQGLP [3a]
[3]; 10 days post transplantation
  increase of platelet counts over untreated controls: up to 35.5%
[3]; 10 days post transplantation, control 169
  platelet counts: 229000 mL⁻¹
[3]; 12 days post transplantation
  increase of platelet counts over untreated controls: up to 13.5%
[3]; [7]
  platelet counts: 622000 mL⁻¹
[1]; [6]
  prevention of glucosuria (in words): highly effective
  Healthy/Total* (healthy and well = sugar not detected in urine): 3/5
[2]
  megakaryocyte formation and development: significant increase

## RPKHPIKHQG [1a]
[1]; [6]
  Healthy/Total* (healthy and well = sugar not detected in urine): 1/5
[4]
  IPGT TEST 0 min. (pre-load), plasma glucose: 88

## RPKHPIKHQGLPQEVLNEN
[2]
  megakaryocyte formation and development: significant increase

## RPKHPIKHQGLPQ [A]
[3]; day 10, albumin control 16.7
  peripheral white blood cell counts: 17.2 ×10^6 cells per dl
[3]; day 12, albumin control 46.4
  peripheral white blood cell counts: 65.4 ×10^6 cells per dl
[1]; [6]
  Healthy/Total* (healthy and well = sugar not detected in urine): 2/5

## RPKHPIKHQGLPQEVLN
[3]; day 10, albumin control 16.7
  peripheral white blood cell counts: 27.4 ×10^6 cells per dl
[3]; day 12, albumin control 46.4
  peripheral white blood cell counts: 52.0 ×10^6 cells per dl
[2]
  megakaryocyte formation and development: significant increase

## RPKHPI [4P]
[3]; 12 days post transplantation
  increase of platelet counts over untreated controls: 29%
[3]; [7]
  platelet counts: 872000 mL⁻¹
[5]; 25 μg per ml, 3 hours pretreatment, infected control 1.06×10^6
  cell counts: 1.26 ×10^6
[5]; 250 μg per ml, 3 hours preincubation, infected control 1.06×10^6
  cell numbers: 1.59 ×10^6
[5]; 3 hours pretreatment
  resistance of CEM cells to HIV-1 infection (in words): significant effect on the susceptibility
[5]; 7 days post infection
  viral particles by HIV-P24 antigen assay vs untreated, infected control: dose dependent reduction
[2]
  megakaryocyte formation and development: significant increase

## RPKHPIKHQGLPQEVLNENLLR [J]
[1]; [6]
  Healthy/Total* (healthy and well = sugar not detected in urine): 3/5

## RPKHPIKHQGLPQEVL [D]
[1]; [6]
  Healthy/Total* (healthy and well = sugar not detected in urine): 2/5
[2]
  macrophages, % of total cell count: ~30%

## RPKHPIKHQGLPQE [B]
[1]; [6]
  Healthy/Total* (healthy and well = sugar not detected in urine): 2/5
[4]
  IPGT TEST 0 min. (pre-load), plasma glucose: 130
[4]; glucose 1 g/kg i.p.
  IPGT TEST 60 min. post load, plasma glucose: 97 mmol/L

Reference: patent US7741274B2, “Casein derived peptides and uses thereof in therapy” (priority 2000, dated 2010)
